# Experimental data reported in ChEMBL document CHEMBL5390310, “Rapid PROTAC Discovery Platform: Nanomole-Scale Array Synthesis and Direct Screening of Reaction Mixtures” (ACS Med Chem Lett, 2023).
# Activity calls are given as the source filed them. The rule behind the calls is not given here.
# Target: T1, von Hippel-Lindau disease tumor suppressor/Bromodomain-containing protein 4 (Homo sapiens, UniProt O60885+P40337)
# Test: Protac activity at VHL E3 ligase/BRD4 in HEK293 cells assessed as degradation maximum by HiBiT assay relative to control
# Assay type: cell-based
# T1 sequence (P40337 whole entry, looked up, other chains not shown): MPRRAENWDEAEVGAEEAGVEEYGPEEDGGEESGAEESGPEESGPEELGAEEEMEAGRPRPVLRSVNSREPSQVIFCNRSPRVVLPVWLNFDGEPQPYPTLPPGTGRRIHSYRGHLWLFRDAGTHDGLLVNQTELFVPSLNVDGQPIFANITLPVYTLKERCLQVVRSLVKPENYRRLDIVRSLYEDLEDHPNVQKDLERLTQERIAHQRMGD
row,Emax,Compound
1,100%,Cc1sc2c(c1C)C(c1ccc(Cl)cc1)=N[C@@H](CC(=O)NCCCCCC(=O)N1CCN(CCCC3CCN(c4ccc5c(c4)CN(C4CCC(=O)NC4=O)C5=O)CC3)CC1)c1nnc(C)n1-2 (stereo in doubt) [listing 1 of 2 here]
2,90%,Cc1sc2c(c1C)C(c1ccc(Cl)cc1)=N[C@@H](CC(=O)N1CCC(CCN3CCC4(CC3)CCN(c3ccc5c(c3)CN(C3CCC(=O)NC3=O)C5=O)CC4)CC1)c1nnc(C)n1-2 (stereo in doubt; 2P) [listing 1 of 2 here]
3,79%,Cc1sc2c(c1C)C(c1ccc(Cl)cc1)=N[C@@H](CC(=O)N1CCN(CCC3CCN(c4ccc5c(c4)CN(C4CCC(=O)NC4=O)C5=O)CC3)CC1)c1nnc(C)n1-2 (stereo in doubt; 6P) [listing 1 of 2 here]
4,96%,Cc1sc2c(c1C)C(c1ccc(Cl)cc1)=N[C@@H](CC(=O)N1CCN(CC#Cc3ccc4c(c3)CN(C3CCC(=O)NC3=O)C4=O)CC1)c1nnc(C)n1-2 (stereo in doubt) [listing 1 of 2 here]
5,91%,Cc1sc2c(c1C)C(c1ccc(Cl)cc1)=N[C@@H](CC(=O)N1CCN(CC#Cc3ccc4c(c3)CN(C3CCC(=O)NC3=O)C4=O)CC1)c1nnc(C)n1-2 (stereo in doubt; 4P) [listing 1 of 2 here]
6,83%,Cc1sc2c(c1C)C(c1ccc(Cl)cc1)=N[C@@H](CC(=O)NCCCCCC(=O)NCCCC#Cc1cccc3c1CN(C1CCC(=O)NC1=O)C3=O)c1nnc(C)n1-2 (stereo in doubt; 9P) [listing 1 of 2 here]
7,99%,Cc1sc2c(c1C)C(c1ccc(Cl)cc1)=N[C@@H](CC(=O)NCCCCCC(=O)N1CCN(CCCC3CCN(c4ccc5c(c4)CN(C4CCC(=O)NC4=O)C5=O)CC3)CC1)c1nnc(C)n1-2 (stereo in doubt; 10P) [listing 1 of 2 here]
8,99%,Cc1sc2c(c1C)C(c1ccc(Cl)cc1)=N[C@@H](CC(=O)N1CCN(CCCC3CCN(c4ccc5c(c4)CN(C4CCC(=O)NC4=O)C5=O)CC3)CC1)c1nnc(C)n1-2 (stereo in doubt; 11P) [listing 1 of 2 here]
9,99%,Cc1sc2c(c1C)C(c1ccc(Cl)cc1)=N[C@@H](CC(=O)N1CCC3(CCN(CC4CCN(c5ccc6c(c5)CN(C5CCC(=O)NC5=O)C6=O)CC4)CC3)CC1)c1nnc(C)n1-2 (stereo in doubt) [listing 1 of 2 here]
10,100%,Cc1sc2c(c1C)C(c1ccc(Cl)cc1)=N[C@@H](CC(=O)N1CCN(CC3CCN(c4ccc5c(c4)CN(C4CCC(=O)NC4=O)C5=O)CC3)CC1)c1nnc(C)n1-2 (stereo in doubt) [listing 1 of 2 here]
11,99%,Cc1sc2c(c1C)C(c1ccc(Cl)cc1)=N[C@@H](CC(=O)N1CCN(CCC3CCN(c4ccc5c(c4)CN(C4CCC(=O)NC4=O)C5=O)CC3)CC1)c1nnc(C)n1-2 (stereo in doubt) [listing 1 of 2 here]
12,100%,Cc1sc2c(c1C)C(c1ccc(Cl)cc1)=N[C@@H](CC(=O)N1CCC3(CC1)CCN(c1ccc4c(c1)CN(C1CCC(=O)NC1=O)C4=O)CC3)c1nnc(C)n1-2 (stereo in doubt) [listing 1 of 2 here]
13,89%,Cc1sc2c(c1C)C(c1ccc(Cl)cc1)=N[C@@H](CC(=O)N1CCN(CC3CCN(c4ccc5c(c4)CN(C4CCC(=O)NC4=O)C5=O)CC3)CC1)c1nnc(C)n1-2 (stereo in doubt; 1P) [listing 1 of 2 here]
14,100%,Cc1sc2c(c1C)C(c1ccc(Cl)cc1)=N[C@@H](CC(=O)N1CCC(CCN3CCC4(CC3)CCN(c3ccc5c(c3)CN(C3CCC(=O)NC3=O)C5=O)CC4)CC1)c1nnc(C)n1-2 (stereo in doubt) [listing 1 of 2 here]
15,101%,Cc1ncsc1-c1ccc(CNC(=O)[C@@H]2C[C@@H](O)CN2C(=O)[C@@H](NC(=O)CN2CCN(C(=O)CCCCCNC(=O)C[C@@H]3N=C(c4ccc(Cl)cc4)c4c(sc(C)c4C)-n4c(C)nnc43)CC2)C(C)(C)C)cc1 (stereo in doubt) [listing 1 of 2 here]
16,96%,Cc1ncsc1-c1ccc(CNC(=O)[C@@H]2C[C@@H](O)CN2C(=O)[C@@H](NC(=O)CCCCCCNC(=O)C[C@@H]2N=C(c3ccc(Cl)cc3)c3c(sc(C)c3C)-n3c(C)nnc32)C(C)(C)C)cc1 (stereo in doubt) [listing 1 of 2 here]
17,80%,Cc1sc2c(c1C)C(c1ccc(Cl)cc1)=N[C@@H](CC(=O)N1CCC3(CCN(CC4CCN(c5ccc6c(c5)CN(C5CCC(=O)NC5=O)C6=O)CC4)CC3)CC1)c1nnc(C)n1-2 (stereo in doubt; 3P) [listing 1 of 2 here]
18,94%,Cc1ncsc1-c1ccc(CNC(=O)[C@@H]2C[C@@H](O)CN2C(=O)[C@@H](NC(=O)CCCCCCNC(=O)C[C@@H]2N=C(c3ccc(Cl)cc3)c3c(sc(C)c3C)-n3c(C)nnc32)C(C)(C)C)cc1 (stereo in doubt; 7P) [listing 1 of 2 here]
19,80%,Cc1ncsc1-c1ccc(CNC(=O)[C@@H]2C[C@@H](O)CN2C(=O)[C@@H](NC(=O)CN2CCN(C(=O)CCCCCNC(=O)C[C@@H]3N=C(c4ccc(Cl)cc4)c4c(sc(C)c4C)-n4c(C)nnc43)CC2)C(C)(C)C)cc1 (stereo in doubt; 8P) [listing 1 of 2 here]
20,100%,Cc1sc2c(c1C)C(c1ccc(Cl)cc1)=N[C@@H](CC(=O)N1CCN(CCCC3CCN(c4ccc5c(c4)CN(C4CCC(=O)NC4=O)C5=O)CC3)CC1)c1nnc(C)n1-2 (stereo in doubt) [listing 1 of 2 here]
21,93%,Cc1sc2c(c1C)C(c1ccc(Cl)cc1)=N[C@@H](CC(=O)NCCCCCC(=O)NCCCC#Cc1cccc3c1CN(C1CCC(=O)NC1=O)C3=O)c1nnc(C)n1-2 (stereo in doubt) [listing 1 of 2 here]

# Target: T1, von Hippel-Lindau disease tumor suppressor/Bromodomain-containing protein 4
# Test: Protac activity at VHL E3 ligase/BRD4 in HEK293 cells assessed as BRD4 degradation by HiBiT assay
# Assay type: cell-based
pDC50,Activity,Compound
6.3,–,Cc1ncsc1-c1ccc(CNC(=O)[C@@H]2C[C@@H](O)CN2C(=O)[C@@H](NC(=O)CN2CCN(C(=O)CCCCCNC(=O)C[C@@H]3N=C(c4ccc(Cl)cc4)c4c(sc(C)c4C)-n4c(C)nnc43)CC2)C(C)(C)C)cc1 (stereo in doubt) [listing 2 of 2 here]
9,–,Cc1sc2c(c1C)C(c1ccc(Cl)cc1)=N[C@@H](CC(=O)N1CCC(CCN3CCC4(CC3)CCN(c3ccc5c(c3)CN(C3CCC(=O)NC3=O)C5=O)CC4)CC1)c1nnc(C)n1-2 (stereo in doubt) [listing 2 of 2 here]
–,Active,Cc1sc2c(c1C)C(c1ccc(Cl)cc1)=N[C@@H](CC(=O)N1CCN(CC#Cc3ccc4c(c3)CN(C3CCC(=O)NC3=O)C4=O)CC1)c1nnc(C)n1-2 (stereo in doubt) [listing 1 of 2 here]
8.8,–,Cc1sc2c(c1C)C(c1ccc(Cl)cc1)=N[C@@H](CC(=O)N1CCN(CCCC3CCN(c4ccc5c(c4)CN(C4CCC(=O)NC4=O)C5=O)CC3)CC1)c1nnc(C)n1-2 (stereo in doubt) [listing 2 of 2 here]
8.6,–,Cc1sc2c(c1C)C(c1ccc(Cl)cc1)=N[C@@H](CC(=O)N1CCC3(CC1)CCN(c1ccc4c(c1)CN(C1CCC(=O)NC1=O)C4=O)CC3)c1nnc(C)n1-2 (stereo in doubt; 5P)
6.8,–,Cc1ncsc1-c1ccc(CNC(=O)[C@@H]2C[C@@H](O)CN2C(=O)[C@@H](NC(=O)CCCCCCNC(=O)C[C@@H]2N=C(c3ccc(Cl)cc3)c3c(sc(C)c3C)-n3c(C)nnc32)C(C)(C)C)cc1 (stereo in doubt; 7P) [listing 2 of 2 here]
9.2,–,Cc1sc2c(c1C)C(c1ccc(Cl)cc1)=N[C@@H](CC(=O)N1CCC(CCN3CCC4(CC3)CCN(c3ccc5c(c3)CN(C3CCC(=O)NC3=O)C5=O)CC4)CC1)c1nnc(C)n1-2 (stereo in doubt; 2P) [listing 2 of 2 here]
7.4,–,Cc1sc2c(c1C)C(c1ccc(Cl)cc1)=N[C@@H](CC(=O)NCCCCCC(=O)NCCCC#Cc1cccc3c1CN(C1CCC(=O)NC1=O)C3=O)c1nnc(C)n1-2 (stereo in doubt; 9P) [listing 2 of 2 here]
8.8,–,Cc1sc2c(c1C)C(c1ccc(Cl)cc1)=N[C@@H](CC(=O)N1CCN(CCC3CCN(c4ccc5c(c4)CN(C4CCC(=O)NC4=O)C5=O)CC3)CC1)c1nnc(C)n1-2 (stereo in doubt) [listing 2 of 2 here]
8.5,–,Cc1sc2c(c1C)C(c1ccc(Cl)cc1)=N[C@@H](CC(=O)N1CCN(CC#Cc3ccc4c(c3)CN(C3CCC(=O)NC3=O)C4=O)CC1)c1nnc(C)n1-2 (stereo in doubt; 4P) [listing 2 of 2 here]
8.8,–,Cc1sc2c(c1C)C(c1ccc(Cl)cc1)=N[C@@H](CC(=O)N1CCC3(CC1)CCN(c1ccc4c(c1)CN(C1CCC(=O)NC1=O)C4=O)CC3)c1nnc(C)n1-2 (stereo in doubt) [listing 2 of 2 here]
7.3,–,Cc1sc2c(c1C)C(c1ccc(Cl)cc1)=N[C@@H](CC(=O)NCCCCCC(=O)NCCCC#Cc1cccc3c1CN(C1CCC(=O)NC1=O)C3=O)c1nnc(C)n1-2 (stereo in doubt) [listing 2 of 2 here]
9.4,–,Cc1sc2c(c1C)C(c1ccc(Cl)cc1)=N[C@@H](CC(=O)N1CCN(CCC3CCN(c4ccc5c(c4)CN(C4CCC(=O)NC4=O)C5=O)CC3)CC1)c1nnc(C)n1-2 (stereo in doubt; 6P) [listing 2 of 2 here]
9.8,–,Cc1sc2c(c1C)C(c1ccc(Cl)cc1)=N[C@@H](CC(=O)NCCCCCC(=O)N1CCN(CCCC3CCN(c4ccc5c(c4)CN(C4CCC(=O)NC4=O)C5=O)CC3)CC1)c1nnc(C)n1-2 (stereo in doubt; 10P) [listing 2 of 2 here]
9.7,–,Cc1sc2c(c1C)C(c1ccc(Cl)cc1)=N[C@@H](CC(=O)N1CCN(CCCC3CCN(c4ccc5c(c4)CN(C4CCC(=O)NC4=O)C5=O)CC3)CC1)c1nnc(C)n1-2 (stereo in doubt; 11P) [listing 2 of 2 here]
9.3,–,Cc1sc2c(c1C)C(c1ccc(Cl)cc1)=N[C@@H](CC(=O)NCCCCCC(=O)N1CCN(CCCC3CCN(c4ccc5c(c4)CN(C4CCC(=O)NC4=O)C5=O)CC3)CC1)c1nnc(C)n1-2 (stereo in doubt) [listing 2 of 2 here]
9.1,–,Cc1sc2c(c1C)C(c1ccc(Cl)cc1)=N[C@@H](CC(=O)N1CCC3(CCN(CC4CCN(c5ccc6c(c5)CN(C5CCC(=O)NC5=O)C6=O)CC4)CC3)CC1)c1nnc(C)n1-2 (stereo in doubt; 3P) [listing 2 of 2 here]
8,–,Cc1sc2c(c1C)C(c1ccc(Cl)cc1)=N[C@@H](CC(=O)N1CCN(CC#Cc3ccc4c(c3)CN(C3CCC(=O)NC3=O)C4=O)CC1)c1nnc(C)n1-2 (stereo in doubt) [listing 2 of 2 here]
9.2,–,Cc1sc2c(c1C)C(c1ccc(Cl)cc1)=N[C@@H](CC(=O)N1CCC3(CCN(CC4CCN(c5ccc6c(c5)CN(C5CCC(=O)NC5=O)C6=O)CC4)CC3)CC1)c1nnc(C)n1-2 (stereo in doubt) [listing 2 of 2 here]
6.9,–,Cc1ncsc1-c1ccc(CNC(=O)[C@@H]2C[C@@H](O)CN2C(=O)[C@@H](NC(=O)CCCCCCNC(=O)C[C@@H]2N=C(c3ccc(Cl)cc3)c3c(sc(C)c3C)-n3c(C)nnc32)C(C)(C)C)cc1 (stereo in doubt) [listing 2 of 2 here]
9.1,–,Cc1sc2c(c1C)C(c1ccc(Cl)cc1)=N[C@@H](CC(=O)N1CCN(CC3CCN(c4ccc5c(c4)CN(C4CCC(=O)NC4=O)C5=O)CC3)CC1)c1nnc(C)n1-2 (stereo in doubt) [listing 2 of 2 here]
9.7,–,Cc1sc2c(c1C)C(c1ccc(Cl)cc1)=N[C@@H](CC(=O)N1CCN(CC3CCN(c4ccc5c(c4)CN(C4CCC(=O)NC4=O)C5=O)CC3)CC1)c1nnc(C)n1-2 (stereo in doubt; 1P) [listing 2 of 2 here]
6.2,–,Cc1ncsc1-c1ccc(CNC(=O)[C@@H]2C[C@@H](O)CN2C(=O)[C@@H](NC(=O)CN2CCN(C(=O)CCCCCNC(=O)C[C@@H]3N=C(c4ccc(Cl)cc4)c4c(sc(C)c4C)-n4c(C)nnc43)CC2)C(C)(C)C)cc1 (stereo in doubt; 8P) [listing 2 of 2 here]
